Laboratory results taken from ChEMBL document CHEMBL2074352, “N-glycosylation controls functional activity of Oatp1, an organic anion transporter” (Am J Physiol Gastrointest Liver Physiol, 2003).

Molecular target: T1, Solute carrier organic anion transporter family member 1A1 (Rattus norvegicus, UniProt P46720)
T1 sequence (P46720 whole entry): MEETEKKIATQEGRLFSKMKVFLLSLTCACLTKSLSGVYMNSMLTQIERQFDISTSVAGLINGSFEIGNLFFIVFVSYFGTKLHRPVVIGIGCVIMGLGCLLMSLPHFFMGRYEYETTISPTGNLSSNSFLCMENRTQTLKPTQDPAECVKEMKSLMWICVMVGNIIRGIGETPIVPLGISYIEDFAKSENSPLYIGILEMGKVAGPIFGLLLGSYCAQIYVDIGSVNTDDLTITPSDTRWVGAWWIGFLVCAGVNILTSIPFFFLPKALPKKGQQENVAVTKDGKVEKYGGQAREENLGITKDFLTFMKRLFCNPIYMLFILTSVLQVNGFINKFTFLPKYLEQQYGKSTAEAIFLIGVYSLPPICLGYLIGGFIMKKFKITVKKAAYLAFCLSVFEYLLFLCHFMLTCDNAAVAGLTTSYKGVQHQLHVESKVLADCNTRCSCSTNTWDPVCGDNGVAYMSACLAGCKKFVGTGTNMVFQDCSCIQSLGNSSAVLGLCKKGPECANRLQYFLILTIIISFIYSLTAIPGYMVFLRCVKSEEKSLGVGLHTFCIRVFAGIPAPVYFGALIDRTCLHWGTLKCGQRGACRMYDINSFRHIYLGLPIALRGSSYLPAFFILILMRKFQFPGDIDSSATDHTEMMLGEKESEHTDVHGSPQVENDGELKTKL
Experiment: TP_TRANSPORTER: uptake in Oatp1-expressing Saccharomyces cerevisiae secretory vesicle
Format: functional, subcellular

| SMILES | Activity |
| --- | --- |
| CCCCC/C=C\C\C=C/C=C/C=C/[C@@H](SC[C@@H](NC(=O)CC[C@H](N)C(=O)O)C(=O)NCC(=O)O)[C@@H](O)CCCC(=O)O [LEUKOTRIEN C4] | is not a substrate [-] |
| C[C@]12CC[C@@H]3c4ccc(OS(=O)(=O)O)cc4CC[C@H]3[C@@H]1CCC2=O [ESTRONE SULFURIC ACID] | is not a substrate [-] |
